This is an account of results in patent US9776972B2, “Pyrazole derivatives as arginine methyltransferase inhibitors and uses thereof” (priority 2013, dated 2017).

The target in the test is human PRMT3 (Homo sapiens, UniProt O60678). Nature of the test: PRMT3 Biochemical Assay (3H-SAM Flashplate, peptide substrate). Particulars: single experiment or average of multiple experiments.
human PRMT3, sequence (O60678 with tags, fused parts or gaps): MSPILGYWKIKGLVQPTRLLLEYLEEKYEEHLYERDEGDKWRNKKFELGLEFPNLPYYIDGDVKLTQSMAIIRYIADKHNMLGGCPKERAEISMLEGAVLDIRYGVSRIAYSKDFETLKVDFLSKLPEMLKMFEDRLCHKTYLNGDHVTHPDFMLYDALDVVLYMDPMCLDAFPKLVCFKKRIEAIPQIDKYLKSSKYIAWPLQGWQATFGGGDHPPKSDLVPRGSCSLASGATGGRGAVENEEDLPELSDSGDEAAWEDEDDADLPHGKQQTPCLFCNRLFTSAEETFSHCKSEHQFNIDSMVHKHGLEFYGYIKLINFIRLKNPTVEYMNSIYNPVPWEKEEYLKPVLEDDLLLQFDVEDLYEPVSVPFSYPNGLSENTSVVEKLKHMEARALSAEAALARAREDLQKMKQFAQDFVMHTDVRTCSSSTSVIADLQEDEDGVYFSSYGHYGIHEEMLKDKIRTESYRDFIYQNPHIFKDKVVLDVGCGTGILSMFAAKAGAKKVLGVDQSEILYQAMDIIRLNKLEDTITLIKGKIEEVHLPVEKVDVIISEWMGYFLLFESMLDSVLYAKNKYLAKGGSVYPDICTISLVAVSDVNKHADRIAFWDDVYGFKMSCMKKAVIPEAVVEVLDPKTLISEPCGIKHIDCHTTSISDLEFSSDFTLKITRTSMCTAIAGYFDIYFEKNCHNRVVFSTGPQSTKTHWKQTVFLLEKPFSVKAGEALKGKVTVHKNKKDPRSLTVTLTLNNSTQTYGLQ
For the molecule `CNCCN(C)Cc1c[nH]nc1-c1ccc(F)c(F)c1` [Compound 51], the IC50 is 5.01 µM.

Turning to `CNCCN(C)Cc1c[nH]nc1-c1cccc2ccccc12` [Compound 57], the IC50 came to 3.35 µM.

`CCN(CCN)Cc1c[nH]nc1-c1ccc(F)cc1` [Compound 62] displayed an IC50 of 4.13 µM.

The molecule `CNCCN(C)Cc1c[nH]nc1-c1ccc(C(=O)c2ccccc2)cc1` [Compound 45] had an IC50 of 5.53 µM.

Turning to `CNCCN(C)Cc1c[nH]nc1-c1ccc(F)cc1F` [Compound 49], the IC50 worked out at 4.43 µM.

In turn, `CNCCN(C)Cc1c[nH]nc1-c1ccc(CO)cc1` [Compound 28] had an IC50 of 0.202 µM.

`CNCCN(C)Cc1c[nH]nc1-c1ccc(Oc2ccccc2)cc1` [Compound 37] had an IC50 of 0.25 µM.

Regarding `CNCCN(C)Cc1c[nH]nc1-c1cccc([N+](=O)[O-])c1` [Compound 21], the IC50 came to 2.3 µM. Compared with the last molecule, the IC50 is about 9.2-fold higher.

The molecule `CNCCN(C)Cc1c[nH]nc1-c1ccc(F)cc1` [Compound 2, N^1-((3-(4-fluorophenyl)-1H-pyrazol-4-yl)methyl)-N^1,N^2-dimethylethane-1,2-diamine] showed an IC50 of 4.48 µM. This IC50 is about 1.9-fold higher than that of the molecule before.

`CNCCN(C)Cc1c[nH]nc1-c1ccc2ccccc2c1` [Compound 58]: the IC50 came out at 3.16 µM.

`CNCCN(C)Cc1c[nH]nc1-c1ccc(N)cc1` [Compound 33] showed an IC50 of 1.89 µM.

Consider `CN(CCN)Cc1c[nH]nc1-c1ccc(C#N)cc1` [Compound 68], for which inhibition was half-maximal at 4.36 µM (IC50).

The molecule `CNCCN(C)Cc1c[nH]nc1-c1ccc(OC)c(F)c1` [Compound 52] had an IC50 of 5.25 µM.

Molecule `CCCc1ccc(-c2n[nH]cc2CN(C)CCNC)cc1` [Compound 20] displayed an IC50 of 3.54 µM.

One may read the IC50 as the midpoint of a concentration-inhibition curve.
